Reference: the NIST ThermoML archive (doi:10.1016/j.fluid.2017.06.024)

Details: Liquid; for speed of sound: Frequency=3 MHz, Pulse-echo method; for mass density: Vibrating tube method

CC(C)OC(C)C [diisopropyl ether]
Details	mass density [kg/m3]	speed of sound [m/s]
293.15 K, 100 kPa	723.5	1019.7
293.15 K, 10000 kPa	734.6	–
293.15 K, 20000 kPa	744.5	1161.2
293.15 K, 30000 kPa	753.3	–
293.15 K, 40000 kPa	761.3	1274.5
293.15 K, 50000 kPa	768.6	–
293.15 K, 60000 kPa	775.4	1369.3
293.15 K, 70000 kPa	781.7	–
293.15 K, 80000 kPa	787.6	1454.2
293.15 K, 90000 kPa	793.2	–
293.15 K, 100000 kPa	798.5	1528.7
293.15 K, 110000 kPa	803.5	–
293.15 K, 120000 kPa	808.4	–
293.15 K, 130000 kPa	813	–
293.15 K, 140000 kPa	817.4	–
303.15 K, 100 kPa	712.9	974.32
303.15 K, 10000 kPa	725.2	–
303.15 K, 20000 kPa	735.9	1122.6
303.15 K, 30000 kPa	745.3	–
303.15 K, 40000 kPa	753.8	1240.4
303.15 K, 50000 kPa	761.5	–
303.15 K, 60000 kPa	768.5	1337.6
303.15 K, 70000 kPa	775.1	–
303.15 K, 80000 kPa	781.2	1423.4
303.15 K, 90000 kPa	787	–
303.15 K, 100000 kPa	792.4	1501.9
303.15 K, 110000 kPa	797.6	–
303.15 K, 120000 kPa	802.5	–
303.15 K, 130000 kPa	807.3	–
303.15 K, 140000 kPa	811.8	–
313.15 K, 100 kPa	702.2	930.24
313.15 K, 10000 kPa	715.5	–
313.15 K, 20000 kPa	726.9	1086.8
313.15 K, 30000 kPa	736.9	–
313.15 K, 40000 kPa	745.7	1207.9
313.15 K, 50000 kPa	753.8	–
313.15 K, 60000 kPa	761.1	1308.1
313.15 K, 70000 kPa	768.1	–
313.15 K, 80000 kPa	774.3	1396.7
313.15 K, 90000 kPa	780.3	–
313.15 K, 100000 kPa	786	1475
313.15 K, 110000 kPa	791.5	–
313.15 K, 120000 kPa	796.4	–
313.15 K, 130000 kPa	801.4	–
313.15 K, 140000 kPa	805.9	–
323.15 K, 100 kPa	691.5	887.83
323.15 K, 10000 kPa	706	–
323.15 K, 20000 kPa	718	1051.9
323.15 K, 30000 kPa	728.5	–
323.15 K, 40000 kPa	737.8	1177.1
323.15 K, 50000 kPa	746.2	–
323.15 K, 60000 kPa	753.9	1279
323.15 K, 70000 kPa	761	–
323.15 K, 80000 kPa	767.5	1368.7
323.15 K, 90000 kPa	773.7	–
323.15 K, 100000 kPa	779.5	1448.7
323.15 K, 110000 kPa	785	–
323.15 K, 120000 kPa	790.3	–
323.15 K, 130000 kPa	795.2	–
323.15 K, 140000 kPa	800	–
333.15 K, 100 kPa	680.6	847.29
333.15 K, 10000 kPa	696.3	–
333.15 K, 20000 kPa	709.3	1017.8
333.15 K, 30000 kPa	720.5	–
333.15 K, 40000 kPa	730.3	1146.8
333.15 K, 50000 kPa	739.1	–
333.15 K, 60000 kPa	747.1	1252.4
333.15 K, 70000 kPa	754.5	–
333.15 K, 80000 kPa	761.4	1343.2
333.15 K, 90000 kPa	767.8	–
333.15 K, 100000 kPa	773.8	1423.5
333.15 K, 110000 kPa	779.4	–
333.15 K, 120000 kPa	784.8	–
333.15 K, 130000 kPa	789.9	–
333.15 K, 140000 kPa	794.7	–
343.15 K, 10000 kPa	686	–
343.15 K, 20000 kPa	700	984.53
343.15 K, 30000 kPa	711.8	–
343.15 K, 40000 kPa	722.2	1117.8
343.15 K, 50000 kPa	731.4	–
343.15 K, 60000 kPa	739.7	1226.4
343.15 K, 70000 kPa	747.3	–
343.15 K, 80000 kPa	754.4	1318.7
343.15 K, 90000 kPa	761	–
343.15 K, 100000 kPa	767.2	1400.8
343.15 K, 110000 kPa	773.2	–
343.15 K, 120000 kPa	778.6	–
343.15 K, 130000 kPa	784	–
343.15 K, 140000 kPa	788.9	–
353.15 K, 10000 kPa	676.2	–
353.15 K, 20000 kPa	691.2	953.14
353.15 K, 30000 kPa	703.7	–
353.15 K, 40000 kPa	714.6	1090.7
353.15 K, 50000 kPa	724.2	–
353.15 K, 60000 kPa	733	1200.4
353.15 K, 70000 kPa	740.9	–
353.15 K, 80000 kPa	748.2	1294.6
353.15 K, 90000 kPa	755.1	–
353.15 K, 100000 kPa	761.4	1378.4
353.15 K, 110000 kPa	767.3	–
353.15 K, 120000 kPa	773	–
353.15 K, 130000 kPa	778.4	–
353.15 K, 140000 kPa	783.5	–
363.15 K, 10000 kPa	666.1	–
363.15 K, 20000 kPa	682.3	–
363.15 K, 30000 kPa	695.6	–
363.15 K, 40000 kPa	707	–
363.15 K, 50000 kPa	717.1	–
363.15 K, 60000 kPa	726.1	–
363.15 K, 70000 kPa	734.4	–
363.15 K, 80000 kPa	742	–
363.15 K, 90000 kPa	749	–
363.15 K, 100000 kPa	755.5	–
363.15 K, 110000 kPa	761.7	–
363.15 K, 120000 kPa	767.5	–
363.15 K, 130000 kPa	773	–
363.15 K, 140000 kPa	778.3	–
373.15 K, 10000 kPa	655.9	–
373.15 K, 20000 kPa	673.3	–
373.15 K, 30000 kPa	687.4	–
373.15 K, 40000 kPa	699.4	–
373.15 K, 50000 kPa	709.9	–
373.15 K, 60000 kPa	719.3	–
373.15 K, 70000 kPa	728	–
373.15 K, 80000 kPa	735.7	–
373.15 K, 90000 kPa	743.1	–
373.15 K, 100000 kPa	749.8	–
373.15 K, 110000 kPa	756.2	–
373.15 K, 120000 kPa	762.2	–
373.15 K, 130000 kPa	767.8	–
373.15 K, 140000 kPa	773.1	–
383.15 K, 10000 kPa	645.3	–
383.15 K, 20000 kPa	664	–
383.15 K, 30000 kPa	679	–
383.15 K, 40000 kPa	691.8	–
383.15 K, 50000 kPa	702.8	–
383.15 K, 60000 kPa	712.5	–
383.15 K, 70000 kPa	721.4	–
383.15 K, 80000 kPa	729.5	–
383.15 K, 90000 kPa	737	–
383.15 K, 100000 kPa	743.9	–
383.15 K, 110000 kPa	750.4	–
383.15 K, 120000 kPa	756.6	–
383.15 K, 130000 kPa	762.4	–
383.15 K, 140000 kPa	767.9	–
393.15 K, 10000 kPa	634.8	–
393.15 K, 20000 kPa	654.9	–
393.15 K, 30000 kPa	670.7	–
393.15 K, 40000 kPa	684	–
393.15 K, 50000 kPa	695.4	–
393.15 K, 60000 kPa	705.6	–
393.15 K, 70000 kPa	714.8	–
393.15 K, 80000 kPa	722.9	–
393.15 K, 90000 kPa	730.8	–
393.15 K, 100000 kPa	738	–
393.15 K, 110000 kPa	744.6	–
393.15 K, 120000 kPa	750.9	–
393.15 K, 130000 kPa	756.8	–
393.15 K, 140000 kPa	762.3	–
